# In patent publication EP0986401B1, “P-SELECTIN TRANSLOCATION TO VASCULAR EPITHELIAL LUMEN BY IONIZING RADIATION” (ARCH DEVELOPMENT CORPORATION, priority 1997, dated 1998):
# Entries after “also recorded” stand apart in the source; their conditions may differ. Structures can show the parent of a compound that is named as a salt. Where two headings read alike, the source gives them in different places. Starred links: 1 amine or outer side, 2 acyl side, 3 side chain; linkers in the order of their positions; H or OH if unused. Positions of bridges follow the written chain, without caps; N, C: chain ends. Non-standard residues stand in square brackets, D forms with d. Residues, ends and D or L forms follow the SMILES beside them. Chains are numbered I, II in the order given. Actinocin(9to1) = Cc1c2oc3c(C)ccc(C(=O)[*:1])c3nc-2c(C(=O)[*:2])c(N)c1=O; NMeV = CN[C@H](C(=O)O)C(C)C; Nle = CCCC[C@H](N)C(=O)O; Sar = CNCC(=O)O
# Tests used:
# [1] = test system: selectin; conditions: cited from earlier work; for block selectin binding to sLe^x: in vitro
# [2] = test system: E-selectin; conditions: Hallahan et al., 1995, 1996; cited from earlier work
# [3] = test system: ICAM-1; conditions: Hallahan et al., 1995, 1996; cited from earlier work
# [4] = test system: P-selectin; test: P-selectin translocation in irradiated HUVEC with microtubule or actin agents, confocal immunofluorescence; format: cell-based, human; conditions: for x-ray induced translocation of P-selectin: HUVEC pretreated 45 min, staining 60 minutes after x-irradiation (2 Gy); for 8-fold increase in P-selectin immunofluorescence on the cell surface: x-irradiated (2 Gy) HUVEC, confocal microscopy quantified by NIH Image, FIG. 2
# [5] = Narasinga Rao et al. (1994); cited from earlier work
# [6] = test system: ICAM-1; test: X-ray induction of ICAM-1 expression with enzyme inhibitors; format: cell-based, human; conditions: inhibitor added prior to irradiation
# Description: (§1) The initial step in discerning the potential role of various signal transduction pathways is to add enzyme inhibitors prior to x-radiation. Exocytosis of Weibel-Palade bodies is an active process requiring the translocation of cytoplasmic granules. Previous studies have shown that intracellular signal transduction required for Weibel Palade body translocation involves influx of calcium and protein kinase C activation (calcium, PKC). To determine whether these signaling pathways participate in radiation-mediated Weibel-Palade body exocytosis, the inventors added the intracellular calcium chelator BAPTA and the protein kinase C inhibitor, calphostin, to HUVEC cells prior to irradiation. Cells were then treated with 10 Gy and immunofluorescence was used to localize P-selectin. […] Conversely, the tyrosin kinase inhibitor, herbimycin A, had no effect on Weibel-Palade exocytosis. To determine whether calcium chelation and protein kinase inhibition prevent all molecular responses to ionizing radiation, the inventors' added BAPTA and calphostin prior to radiation-induction of ICAM-1 expression. BAPTA and calphostin had no effect on x-ray induction of ICAM-1. However, herbimycin A and the NFkB inhibitor ALLN attenuated x-ray induction of ICAM-1.
# [7] = test system: P-selectin; test: P-selectin translocation (Weibel-Palade body exocytosis) in irradiated HUVEC with enzyme inhibitors, immunofluorescence; format: cell-based, human; conditions: inhibitor added prior to irradiation, 10 Gy
# Description: as §1
# [8] = test system: vWF; conditions: disruption of microtubules; cited from earlier work
# [9] = test system: HL60 cells; test: HL60 leukocyte adhesion to irradiated HUVECs; format: cell-based, human; conditions: 1 mM each; added 4 h after 10 Gy and 30 min prior to HL60 cells
# Method: Human leukemia cell line HL60 has been used to quantify leukocyte adhesion to endothelial cells (Jones et al., 1995). HL60 cells were added to human umbilical vein in endothelial cells (HUVECs) after exposure to 10 Gy or cells treated with otherwise identical conditions without irradiation. Cultures were washed and cells were counted using a hemocytometer. […] Each agent blocked the adherence of HL60 cells to irradiated HUVECs.
# [10] = target: T1, E-selectin (Homo sapiens, UniProt P16581); conditions: Nelson et al. (1993); cited from earlier work
# T1 sequence (P16581 22-610): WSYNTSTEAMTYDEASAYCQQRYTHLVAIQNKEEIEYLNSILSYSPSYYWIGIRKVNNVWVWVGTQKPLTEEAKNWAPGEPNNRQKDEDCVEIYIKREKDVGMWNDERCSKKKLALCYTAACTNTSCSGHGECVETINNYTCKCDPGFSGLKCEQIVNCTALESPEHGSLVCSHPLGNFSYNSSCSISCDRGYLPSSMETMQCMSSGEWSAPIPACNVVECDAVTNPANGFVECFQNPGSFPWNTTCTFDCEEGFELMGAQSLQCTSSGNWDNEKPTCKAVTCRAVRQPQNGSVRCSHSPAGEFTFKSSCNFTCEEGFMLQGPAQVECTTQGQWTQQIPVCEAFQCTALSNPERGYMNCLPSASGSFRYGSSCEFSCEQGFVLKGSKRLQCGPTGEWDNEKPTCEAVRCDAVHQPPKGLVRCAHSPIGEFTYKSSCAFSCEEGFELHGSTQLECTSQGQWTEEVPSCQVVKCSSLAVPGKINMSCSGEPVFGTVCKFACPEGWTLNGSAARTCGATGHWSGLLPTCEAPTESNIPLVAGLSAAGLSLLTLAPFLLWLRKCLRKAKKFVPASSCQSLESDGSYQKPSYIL
# [11] = test system: von Willebrand Factor; conditions: Vischer et al., 1995; cited from earlier work
# [12] = rats, orally; Akao et al. (1994); cited from earlier work
compound,measurement,setting,value
C[C@@H]1O[C@@H](O[C@H]2[C@H](O[C@H]3CC[C@@]4(C)[C@@H](CC[C@]5(C)[C@@H]4CC=C4[C@@H]6CC(C)(C)CC[C@]6(C(=O)O)CC[C@]45C)[C@]3(C)CO)OC[C@H](O)[C@@H]2O)[C@H](O)[C@H](O)[C@H]1O [α-Hederin],inhibiting concentrations,"[1]; selectin binding to sLe^x, Narasinga Rao et al. (1994)",2 to 3 mM
"Cc1c2oc3c(C)ccc(C(=O)N[C@@H]4C(=O)N[C@H](C(C)C)C(=O)N5CCC[C@H]5C(=O)N(C)CC(=O)N(C)[C@@H](C(C)C)C(=O)O[C@@H]4C)c3nc-2c(C(=O)N[C@@H]2C(=O)N[C@H](C(C)C)C(=O)N3CCC[C@H]3C(=O)N(C)CC(=O)N(C)[C@@H](C(C)C)C(=O)O[C@@H]2C)c(N)c1=O [actinomycin D] (I: T[dV]P[Sar][NMeV] / II: T[dV]P[Sar][NMeV]; ester I:1-I:C, II:1-II:C; linker I:N-II:N via Actinocin(9to1))",radiation-mediated increase in E-selectin mRNA expression,[2],blocked
same,radiation-mediated increase in ICAM-1 mRNA expression,[3],blocked
COC(=O)Nc1nc2cc(C(=O)c3cccs3)ccc2[nH]1 [nocodozol],x-ray induced translocation of P-selectin,[4],inhibited
same,8-fold increase in P-selectin immunofluorescence on the cell surface,[4],abrogated
CC1OC(OC2CCC3(C)C(CCC4(C)C3C(=O)C=C3C5CC(C)(C(=O)O)CCC5(C)CCC34C)C2(C)C)C(O)C(O)C1O [L-fucose derivative],in vivo efficacy (anti-inflammatory activity),[5],most active
same,selectin inhibition activity in vitro,"[1]; sugars substituted for the glucuronic acids of glycyrrhizin, Narasinga Rao et al. (1994)",most active
"CC(=O)Nc1c(I)c(C(=O)O)c(I)c(N(C)C(C)=O)c1I [metrizoic acid (meglumine salt), metrizoic acid]",block selectin binding to sLe^x,[1]; Narasinga Rao et al. (1994),effective
"CC1(C)[C@@H](O[C@H]2O[C@H](C(=O)O)[C@@H](O)[C@H](O)[C@H]2O[C@@H]2O[C@H](C(=O)O)[C@@H](O)[C@H](O)[C@H]2O)CC[C@]2(C)[C@H]3C(=O)C=C4[C@@H]5C[C@@](C)(C(=O)O)CC[C@]5(C)CC[C@@]4(C)[C@]3(C)CC[C@@H]12 [glycyrrhizic acid (NH^+4), glycyrrhizic acid]",block selectin binding to sLe^x,[1]; Narasinga Rao et al. (1994),blocked
CC(=O)Nc1c(I)c(NC(C)=O)c(I)c(C(=O)O)c1I.CNC[C@H](O)[C@@H](O)[C@H](O)[C@H](O)CO [meglumine diatrizoate],block selectin binding to sLe^x,[1]; Narasinga Rao et al. (1994),effective
O=C(O)c1cc(O)c2c(c1)C(=O)c1cccc(O[C@@H]3O[C@H](CO)[C@@H](O)[C@H](O)[C@H]3O)c1C2=O [rhein-8-glucoside],block selectin binding to sLe^x,[1]; Narasinga Rao et al. (1994),effective
CO[C@H]1[C@@H](OC)C[C@H](C)[C@@H](OC)C2=CC(=O)C=C(NC(=O)/C(C)=C/C=C\[C@H](OC)[C@@H](OC(N)=O)/C(C)=C/[C@@H]1C)C2=O [herbimycin A],x-ray induction of ICAM-1,[6],attenuated
same,P-selectin translocation to the cell membrane (Weibel-Palade exocytosis),[7],no effect
C[C@H]1O[C@H](O[C@H]2[C@H](O)[C@@H](O)[C@@H](O)[C@H](O)[C@@H]2O)[C@@H](N)C[C@@H]1NC(=N)C(=O)O [kasugamycin],block selectin binding to sLe^x,[1]; Narasinga Rao et al. (1994),effective
COc1cc2c(c(OC)c1OC)-c1ccc(OC)c(=O)cc1[C@@H](NC(C)=O)CC2 [colchicine],vWF secretion from thrombin-treated endothelial cells,[8],attenuates
CC(C)C[C@H](NP(=O)(O)O[C@@H]1O[C@@H](C)[C@H](O)[C@@H](O)[C@H]1O)C(=O)N[C@@H](Cc1c[nH]c2ccccc12)C(=O)[O-].CC(C)C[C@H](NP(=O)(O)O[C@@H]1O[C@@H](C)[C@H](O)[C@@H](O)[C@H]1O)C(=O)N[C@@H](Cc1c[nH]c2ccccc12)C(=O)[O-].[Na+].[Na+] [N-(α-Rhamnopyranosyloxy hydroxyphosphonyl)- Leu-Trp],block selectin binding to sLe^x,[1]; Narasinga Rao et al. (1994),effective
Cc1c(C(=O)O)c(O)cc2c1C(=O)c1c(O)c([C@H]3O[C@H](CO)[C@@H](O)[C@H](O)[C@H]3O)c(O)c(O)c1C2=O [carmine],block selectin binding to sLe^x,[1]; Narasinga Rao et al. (1994),effective
Neu5Acα2-3Galβ1-4 [Fucα1-3]GlcNAc [sialyl Lewis X],adherence of HL60 cells to irradiated HUVECs,[9],blocked
escin,block selectin binding to sLe^x,[1]; Narasinga Rao et al. (1994),effective
carmine ammonia,block selectin binding to sLe^x,[1]; Narasinga Rao et al. (1994),effective
O=C(O)[C@H]1O[C@H](O[C@@H]2[C@H](O)[C@@H](O)[C@@H](O[C@@H]3[C@H](O)[C@@H](O)C(O)O[C@@H]3C(=O)O)O[C@@H]2C(=O)O)[C@H](O)[C@@H](O)[C@H]1O (some centres unmarked) [trigalacturonic acid],block selectin binding to sLe^x,[1]; Narasinga Rao et al. (1994),effective
C[C@H]1O[C@H](OC2[C@@H](O)[C@@H](O)C(O)[C@H](O)[C@H]2O)[C@@H](N)C[C@@H]1N=C(N)C(=O)O.Cl (some centres unmarked) [kasugamycin hydrochloride],block selectin binding to sLe^x,[1]; Narasinga Rao et al. (1994),effective
CC1(C)[C@@H](O)CC[C@]2(C)[C@H]3C(=O)C=C4[C@@H]5C[C@@](C)(C(=O)O)CC[C@]5(C)CC[C@@]4(C)[C@]3(C)CC[C@@H]12 [18-β-glycyrrhetinic acid],IC50,"[1]; Narasinga-Rao et al. (1994), read-out: IC50 blocking selectin activity",> 2000 µM
C=C1[C@@H](C)[C@H]2[C@H](Cc3ccccc3)NC(=O)[C@]23OC(=O)/C=C/[C@H](O)CCC[C@@H](C)C/C=C/[C@H]3[C@@H]1O [cytochalasin-B],x-ray induced translocation of P-selectin,[4],no inhibition
same,8-fold increase in P-selectin immunofluorescence on the cell surface,[4],not
Cc1c(C(=O)O)c(O)cc2c1C(=O)c1c(O)c([C@@H]3O[C@H](CO)[C@@H](O)[C@H](O)[C@H]3O)c(O)c(O)c1C2=O [carminic acid],block selectin binding to sLe^x,[1]; Narasinga Rao et al. (1994),blocked selectin binding at concentrations comparable to those of glycyrrhizin
same,adherence of HL60 cells to irradiated HUVECs,[9],blocked
COC(=O)CCCCCCCCO[C@@H]1O[C@H](CO)[C@@H](O[C@@H]2O[C@@H](C)[C@@H](O)[C@@H](O)[C@@H]2O)[C@H](O[C@@H]2O[C@H](CO)[C@H](O)[C@H](O[C@]3(C(=O)O)C[C@H](O)[C@@H](NC(C)=O)[C@H]([C@H](O)[C@H](O)CO)O3)[C@H]2O)[C@H]1N [amino substituted sLe^a],IC50,[10],21 ± 3 µM
same,more active than the reducing tetrasaccharide sLe^x,[10],36 fold
calphostin,x-ray induction of ICAM-1,[6],no effect
same,P-selectin translocation to the cell membrane (Weibel-Palade exocytosis),[7],attenuation; also recorded: attenuates
O=C(O)CN(CC(=O)O)c1ccccc1OCCOc1ccccc1N(CC(=O)O)CC(=O)O [BAPTA],x-ray induction of ICAM-1,[6],no effect
same,P-selectin translocation to the cell membrane (Weibel-Palade exocytosis),[7],attenuation
same,superoxide induced von Willebrand Factor exocytosis,[11],inhibited
CCCC[C@@H](C=O)NC(=O)[C@H](CC(C)C)NC(=O)[C@H](CC(C)C)NC(C)=O [ALLN] (Ac-Leu-Leu-[Nle]-aldehyde),x-ray induction of ICAM-1,[6],attenuated
[ring-^14C]Chlorhexidine,block selectin binding to sLe^x,[1]; Narasinga Rao et al. (1994),effective
picrocarmine,block selectin binding to sLe^x,[1]; Narasinga Rao et al. (1994),effective
CC1(C)[C@@H](O[C@H]2O[C@H](C(=O)O)[C@@H](O)[C@H](O)[C@H]2O[C@@H]2O[C@H](C(=O)O)[C@@H](O)[C@H](O)[C@H]2O)CC[C@]2(C)[C@H]3C(=O)C=C4[C@@H]5C[C@@](C)(C(=O)O)CC[C@]5(C)CC[C@@]4(C)[C@]3(C)CC[C@@H]12 [Glycyrrhizin],block selectin binding to sLe^x,[1]; Narasinga Rao et al. (1994),block
same,block selectin binding to sLe^x,"[1]; Narasinga Rao et al. (1994), listed as glycyrrhizin",blocked
same,absorption from the gut,[12],poorly absorbed
same,adherence of HL60 cells to irradiated HUVECs,[9],blocked
